US20070185161A1, “Bicyclic substituted indole-derivative steroid hormone nuclear receptor modulators” (priority 2004, published 2007)

Target: T1, glucocorticoid receptor (A549 human lung epithelial cell extract) (Homo sapiens, UniProt P04150)
T1 construct: host or cells: A549 human lung epithelial cells
T1 sequence (P04150 1-777): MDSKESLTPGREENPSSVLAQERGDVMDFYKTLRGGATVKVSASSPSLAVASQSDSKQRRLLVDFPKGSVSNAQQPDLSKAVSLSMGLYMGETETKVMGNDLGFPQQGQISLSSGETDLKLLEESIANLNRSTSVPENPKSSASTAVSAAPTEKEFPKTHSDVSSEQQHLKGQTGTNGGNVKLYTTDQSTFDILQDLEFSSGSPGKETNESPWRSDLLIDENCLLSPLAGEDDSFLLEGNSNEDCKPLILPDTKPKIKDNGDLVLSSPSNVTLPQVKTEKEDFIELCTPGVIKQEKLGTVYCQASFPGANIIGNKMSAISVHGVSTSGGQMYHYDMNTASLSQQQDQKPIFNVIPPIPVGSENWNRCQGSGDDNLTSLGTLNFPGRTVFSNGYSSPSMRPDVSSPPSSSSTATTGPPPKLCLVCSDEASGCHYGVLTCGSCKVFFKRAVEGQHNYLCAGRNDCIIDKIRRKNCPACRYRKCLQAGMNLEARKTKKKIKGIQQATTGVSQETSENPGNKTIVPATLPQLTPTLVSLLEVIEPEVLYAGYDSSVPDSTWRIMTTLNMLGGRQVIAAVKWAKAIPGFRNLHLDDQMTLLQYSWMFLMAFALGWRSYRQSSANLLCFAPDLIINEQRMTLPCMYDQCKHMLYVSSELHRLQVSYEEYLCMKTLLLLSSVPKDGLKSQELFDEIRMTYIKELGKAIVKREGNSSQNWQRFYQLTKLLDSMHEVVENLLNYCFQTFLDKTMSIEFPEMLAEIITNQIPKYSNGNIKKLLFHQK
Experiment: Glucocorticoid Receptor Binding Assay (Method 1)
Details: [3H]-dexamethasone, racemic mixture unless otherwise indicated, read-out: GR Ki (nM) Method 1
Procedure: A549 human lung epithelial cells (ATCC) are grown at a scale where gram quantity cell pellets are obtained. Harvested cell pellets are washed twice in cold phosphate buffered saline, centrifuged, and resuspended in cold assay binding buffer. The assay binding buffer consists of 10% glycerol, 50 mM Tris-HCl (pH7.2), 75 mM sodium chloride, 1.5 mM magnesium chloride, 1.5 mM EDTA, and 10 mM sodium molybdate. Cell suspensions were lysed via sonication, centrifuged, and the “extract” supernatant is snap frozen and stored at −80 C until needed.
GR binding assays are performed in a final volume of 140 ul containing 50-200 ug of A549 cell extract and 1.86 nM [^3H]-dexamethasone (Amersham) plus varying concentrations of test compound or vehicle. Briefly, assays are prepared at RT in 96-well Fisher 3356 plates, each well containing 100 ul of A549 cell extract, 20 ul of [^3H]-dexamethasone, and 20 ul of test compound/vehicle. Incubations are carried out at 4 degrees Celsius for 16 hours. After incubation, 70 ul of 3× dextran-coated charcoal solution is added to each reaction, mixed, and incubated for 8 minutes at RT. 3×-dextran-coated charcoal solution consists of 250 ml assay binding buffer, 3.75 g Norit A charcoal (Sigma), and 1.25 g dextran T-70 (Amersham). Charcoal/unbound radioligand complexes are removed by centrifugation of the plate and 140 ul of supernatant from each well is transferred to another 96 well Optiplate (Packard Instruments). 200 ul of Microscint-20 scinillant (Packard Instruments) is added to each well and amount of receptor bound radioligand is determined using Packard Instruments TopCount instrument.
IC50 values, defined as the concentration of test compound required to decrease [^3H]-dexamethasone binding by 50%, are then determined. Ki values for each respective test compound can then be calculated by application of the Cheng-Prusoff equation as described in Cheng et al., Relationship Between The Inhibition Constant (Ki) and The Concentration of Inhibitor Which Causes 50% Inhibition (IC50) of an Enzymatic Reaction, Biochem. Pharmacol., 22: 3099-31088; (1973).

Compound | Ki [nM]
CCC1(c2c[nH]c3c(NS(C)(=O)=O)cccc23)CCc2cc(F)ccc21 (racemic) [Example 1, N-[3-(1-ethyl-5-fluoro-indan-1-yl)-1H-indol-7-yl]-methanesulfonamide] | ≤ 500
CC1(c2c[nH]c3c(NS(C)(=O)=O)cccc23)CCc2cc(F)ccc21 (racemic) [Example 21, N-[3-(5-Fluoro-1-methyl-indan-1-yl)-1H-indol-7-yl]-methanesulfonamide] | ≤ 500
CCC1(c2c[nH]c3c(NS(C)(=O)=O)cccc23)CCc2cc(F)cc(F)c21 (racemic) [Example 23, N-[3-(1-Ethyl-5,7-difluoro-indan-1-yl)-1H-indol-7-yl]-methanesulfonamide] | ≤ 500
CC1(c2c[nH]c3c(NS(C)(=O)=O)cccc23)CCCc2cc(F)ccc21 (racemic) [Example 28, N-[3-(6-Fluoro-1-methyl-1,2,3,4-tetrahydro-naphthalen-1-yl)-1H-indol-7-yl]-methanesulfonamide] | ≤ 500
CCC1(c2c[nH]c3c(NS(C)(=O)=O)cccc23)CCCc2cc(F)ccc21 (racemic) [Example 29, N-[3-(1-Ethyl-6-fluoro-1,2,3,4-tetrahydro-naphthalen-1-yl)-1H-indol-7-yl]-methanesulfonamide] | ≤ 500
CCC1(c2c[nH]c3c(NS(C)(=O)=O)cccc23)CCCc2cc(F)cc(F)c21 (racemic) [Example 31, N-[3-(1-Ethyl-6,8-difluoro-1,2,3,4-tetrahydro-naphthalen-1-yl)-1H-indol-7-yl]-methanesulfonamide] | ≤ 500
CCC1(c2c[nH]c3c(NS(C)(=O)=O)cccc23)CCc2cc(F)ccc21 (single isomer, unassigned) [Example 1A, N-[3-(1-ethyl-5-fluoro-indan-1-yl)-1H-indol-7-yl]-methanesulfonamide] | ≤ 500
CC1(c2c[nH]c3c(NS(C)(=O)=O)cccc23)CCc2cc(F)ccc21 (single isomer, unassigned) [Example 21A, N-[3-(5-Fluoro-1-methyl-indan-1-yl)-1H-indol-7-yl]-methanesulfonamide] | ≤ 500
CC1(c2c[nH]c3c(NS(C)(=O)=O)cccc23)CCc2cc(F)ccc21 (single isomer, unassigned) [Example 21B, N-[3-(5-Fluoro-1-methyl-indan-1-yl)-1H-indol-7-yl]-methanesulfonamide] | ≤ 500
CCC1(c2c[nH]c3c(NS(C)(=O)=O)cccc23)CCc2cc(F)cc(F)c21 (single isomer, unassigned) [Example 23A, N-[3-(1-Ethyl-5,7-difluoro-indan-1-yl)-1H-indol-7-yl]-methanesulfonamide] | ≤ 500
CCC1(c2c[nH]c3c(NS(C)(=O)=O)cccc23)CCc2cc(F)cc(F)c21 (single isomer, unassigned) [Example 23B, N-[3-(1-Ethyl-5,7-difluoro-indan-1-yl)-1H-indol-7-yl]-methanesulfonamide] | ≤ 10000
CC1(c2c[nH]c3c(NS(C)(=O)=O)cccc23)CCCc2cc(F)ccc21 (single isomer, unassigned) [Example 28A, N-[3-(6-Fluoro-1-methyl-1,2,3,4-tetrahydro-naphthalen-1-yl)-1H-indol-7-yl]-methanesulfonamide] | ≤ 500
CC1(c2c[nH]c3c(NS(C)(=O)=O)cccc23)CCCc2cc(F)ccc21 (single isomer, unassigned) [Example 28B, N-[3-(6-Fluoro-1-methyl-1,2,3,4-tetrahydro-naphthalen-1-yl)-1H-indol-7-yl]-methanesulfonamide] | ≤ 500
CCC1(c2c[nH]c3c(NS(C)(=O)=O)cccc23)CCCc2cc(F)ccc21 (single isomer, unassigned) [Example 29A, N-[3-(1-Ethyl-6-fluoro-1,2,3,4-tetrahydro-naphthalen-1-yl)-1H-indol-7-yl]-methanesulfonamide] | ≤ 500
CCC1(c2c[nH]c3c(NS(C)(=O)=O)cccc23)CCCc2cc(F)ccc21 (single isomer, unassigned) [Example 29B, N-[3-(1-Ethyl-6-fluoro-1,2,3,4-tetrahydro-naphthalen-1-yl)-1H-indol-7-yl]-methanesulfonamide] | ≤ 500
